Laboratory results published in publication PMC4648982 (Chemistry Central Journal, 2015).
Structures can show the parent of a compound that is named as a salt. Where two headings read alike, the source gives them in different places.

Biological target: jack bean urease (Canavalia ensiformis, UniProt P07374)
Experiment: biochemical
Experimental: Reaction mixture comprising of 25μL of enzyme (jack bean urease) (1 unit/well) solution and 55 μL of phosphate buffers (4 mM) containing 100 mM urea were incubated with 5 μL of test compounds dissolved in methanol (0.5 mM concentration) at 30 °C for 15 min in 96-well plates. Urease activity was determined by measuring ammonia production using the indophenol method as described by Weather burn. Briefly, 45 μl each phenol reagent (1 % w/v phenol and 0.005 % w/v sodium nitroprussside) and 70 μL of alkali reagent(0.5 % w/v NaOH and 0.1 % active chloride NaOCl) were added to each well. The increasing absorbance at 630 nm was measured afther 50 min, using a microplate reader (Molecular Device, USA). All reactions were performed in triplicate in a final volume of 200 μL. The results (change in absorbance per min) were processed by using softMax Pro software (molecular Device, USA). The entire assays were performed at pH 6.8. Percentage inhibitions were calculated from the formula 100 − (ODtestwell/ODcontrol) × 100. Thiourea was used as the standard inhibitor of urease.

jack bean urease, sequence (P07374 whole entry, looked up): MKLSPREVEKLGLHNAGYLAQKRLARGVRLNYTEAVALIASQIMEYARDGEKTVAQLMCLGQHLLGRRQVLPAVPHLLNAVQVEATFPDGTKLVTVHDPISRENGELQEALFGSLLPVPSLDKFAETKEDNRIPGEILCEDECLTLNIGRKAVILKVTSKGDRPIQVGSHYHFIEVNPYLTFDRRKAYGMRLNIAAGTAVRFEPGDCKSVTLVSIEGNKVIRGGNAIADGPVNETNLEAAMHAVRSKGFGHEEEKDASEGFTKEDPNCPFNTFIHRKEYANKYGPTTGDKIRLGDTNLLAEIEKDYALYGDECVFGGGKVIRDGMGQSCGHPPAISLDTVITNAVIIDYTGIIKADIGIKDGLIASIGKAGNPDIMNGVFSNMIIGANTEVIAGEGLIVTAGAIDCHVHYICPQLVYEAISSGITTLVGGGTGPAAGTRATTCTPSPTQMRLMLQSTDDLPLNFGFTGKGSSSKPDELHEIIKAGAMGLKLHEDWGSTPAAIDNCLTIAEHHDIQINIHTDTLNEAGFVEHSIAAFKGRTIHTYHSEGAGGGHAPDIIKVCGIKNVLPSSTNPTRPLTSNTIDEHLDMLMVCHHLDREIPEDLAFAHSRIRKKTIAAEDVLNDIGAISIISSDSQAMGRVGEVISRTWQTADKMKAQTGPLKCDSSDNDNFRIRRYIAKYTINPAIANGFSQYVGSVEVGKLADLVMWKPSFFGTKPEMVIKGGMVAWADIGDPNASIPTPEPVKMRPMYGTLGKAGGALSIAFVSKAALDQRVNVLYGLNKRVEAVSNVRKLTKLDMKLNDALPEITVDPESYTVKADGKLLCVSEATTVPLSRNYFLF

Row | Compound | IC50 [µM] | urease inhibitory activity in words (in vitro assay, authors' verbal grading) | IC50 (jack bean urease, indophenol method, pH 6.8, 30 °C, 15 min incubation, triplicate, read-out: Urease inhibition IC50 ± SEM) [µM]
1 | O=c1[nH]c(O)c(C(c2ccc(Cl)cc2)c2c(O)[nH]c(=O)[nH]c2=O)c(=O)[nH]1 [Compound 4j, 5,5′-((4-Chlorophenyl)methylene)bis(6-hydroxypyrimidine-2,4(1H,3H)-dione) diethylaminium salt] | 22.3 ± 0.73 | active | –
2 | Cn1c(O)c(C(C2=C(O)CC(C)(C)CC2=O)c2ccc(C=O)cc2)c(=O)n(C)c1=O (stereo not drawn) [Compound 4x, 4-((6-hydroxy-1,3-dimethyl-2,4-dioxo-1,2,3,4-tetrahydropyrimidin-5-yl)(2-hydroxy-4,4-dimethyl-6-oxocyclohex-1-en-1-yl)methyl)benzaldehyde diethylaminium salt] | 38.5 ± 0.28 | – | –
3 | COc1ccc(C(c2c(O)n(C)c(=O)n(C)c2=O)c2c(O)n(C)c(=O)n(C)c2=O)cc1 [Compound 4d, 5,5′-((4-Methoxyphenyl)methylene)bis(1,3-dimethylpyrimidine-2,4,6(1H,3H,5H)-trione) diethylaminium salt] | 31.6 ± 0.79 | – | –
4 | 2-((2-Hydroxy-4,4-dimethyl-6-oxocyclohex-1-en-1-yl)(m-tolyl)methyl)-5,5-dimethyl-3-oxocyclohex-1-enolate diethylaminium salt [Compound 5d] | – | – | 51.3 ± 0.45
5 | Cn1c(O)c(C(C2=C(O)CC(C)(C)CC2=O)c2ccccc2)c(=O)n(C)c1=O (stereo not drawn) [Compound 4m, 5-((2-Hydroxy-4,4-dimethyl-6-oxocyclohex-1-en-1-yl)(phenyl)methyl)-1,3-dimethyl-2,6-dioxo-1,2,3,6-tetrahydropyrimidin-4-olate diethylaminium salt] | 39.3 ± 0.79 | – | –
